In ChEMBL document CHEMBL1122901, “Synthesis and biological activities of 2-pyrimidinone nucleosides. 2. 5-Halo-2-pyrimidinone 2'-deoxyribonucleosides” (J Med Chem, 1985):

Tests used:
Human alphaherpesvirus 1 [1] = assay: Antiherpes activity was tested as percent of control of plaque-formation against ACG (S1) virus by 5 uM of the compound; format: functional, acycloguanosine resistant strain
Human alphaherpesvirus 1 [2] = assay: Antiherpes activity was tested as percent of control of plaque-formation against ACG (Tr7) virus by 5 uM of the compound; format: functional, acycloguanosine resistant strain
Human alphaherpesvirus 1 [3] = assay: Antiherpes activity was tested as percent of control of plaque-formation against BVdUr virus by 5 uM of the compound; format: functional, bromovinyl deoxyuridine resistant strain
Human alphaherpesvirus 1 [4] = assay: Antiherpes activity was tested as percent of control of plaque-formation against HSV-1 (KOS) virus by 5 uM of the compound; format: functional
[5] = Antiherpes activity was tested as percent of control of plaque-formation against PFAr virus by 5 uM of the compound; format: functional, Herpes simplex virus unknown type
Human alphaherpesvirus 1 [6] = assay: Antiherpes activity was tested as percent of control of plaque-formation against ACG (S1) virus by 30 uM of the compound; format: functional, acycloguanosine resistant strain
Human alphaherpesvirus 1 [7] = assay: Antiherpes activity was tested as percent of control of plaque-formation against ACG (Tr7) virus by 30 uM of the compound; format: functional, acycloguanosine resistant strain
Human alphaherpesvirus 1 [8] = assay: Antiherpes activity was tested as percent of control of plaque-formation against BVdUr virus by 30 uM of the compound; format: functional, bromovinyl deoxyuridine resistant strain
Human alphaherpesvirus 2 [9] = assay: Antiherpes activity was tested as percent of control of plaque-formation against HSV-2 (333) virus by 30 uM of the compound; format: functional
Human alphaherpesvirus 1 [10] = assay: Antiherpes activity was tested as percent of control of plaque-formation against HSV-1 (CL101) virus by 30 uM of the compound; format: functional
Human alphaherpesvirus 1 [11] = assay: Antiherpes activity was tested as percent of control of plaque-formation against HSV-1 (KOS) virus by 30 uM of the compound; format: functional
Human alphaherpesvirus 1 [12] = assay: Antiherpes activity was tested as percent of control of plaque-formation against ACG (S1) virus by 100 uM of the compound; format: functional, acycloguanosine resistant strain
Human alphaherpesvirus 1 [13] = assay: Antiherpes activity was tested as percent of control of plaque-formation against ACG (Tr7) virus by 100 uM of the compound; format: functional, acycloguanosine resistant strain
Human alphaherpesvirus 1 [14] = assay: Antiherpes activity was tested as percent of control of plaque-formation against BVdUr virus by 100 uM of the compound; format: functional, bromovinyl deoxyuridine resistant strain
Human alphaherpesvirus 2 [15] = assay: Antiherpes activity was tested as percent of control of plaque-formation against HSV-2 (333) virus by 100 uM of the compound; format: functional
Human alphaherpesvirus 2 [16] = assay: Antiherpes activity was tested as percent of control of plaque-formation against HSV-2 (CEU-G) virus by 100 uM of the compound; format: functional
Human alphaherpesvirus 2 [17] = assay: Binding affinity against HSV-2(333); format: functional, organism-based
Human alphaherpesvirus 1 [18] = assay: Antiherpes activity was tested as percent of control of plaque-formation against HSV-1 (CL101) virus by 100 uM of the compound; format: functional
Human alphaherpesvirus 1 [19] = assay: Antiherpes activity was tested as percent of control of plaque-formation against HSV-1 (KOS) virus by 100 uM of the compound; format: functional
Human alphaherpesvirus 1 [20] = assay: Binding affinity against HSV-1(KOS); format: functional, organism-based
[21] = Antiherpes activity was tested as percent of control of plaque-formation against PFAr virus by 100 uM of the compound; format: functional, Herpes simplex virus unknown type

Compound: Nc1nc2c(ncn2COCCO)c(=O)[nH]1 [ACYCLOVIR]
- Control (Human alphaherpesvirus 1 [1]): 100%
- Control (Human alphaherpesvirus 1 [2]): 85%
- Control (Human alphaherpesvirus 1 [3]): 0.7%
- Control (Human alphaherpesvirus 1 [4]): 6.5%
- Control [5]: 100%

Compound: O=c1[nH]c(=O)n([C@H]2C[C@H](O)[C@@H](CO)O2)cc1/C=C/Br [BRIVUDINE]
- Control (Human alphaherpesvirus 1 [6]): 3.7%
- Control (Human alphaherpesvirus 1 [7]): 0.8%
- Control (Human alphaherpesvirus 1 [8]): 52%
- Control (Human alphaherpesvirus 2 [9]): 1.7%
- Control (Human alphaherpesvirus 1 [10]): 0.4%
- Control (Human alphaherpesvirus 1 [11]): 0.1%

Compound: O=c1[nH]c(=O)n([C@H]2C[C@H](O)[C@@H](CO)O2)cc1I [IDOXURIDINE]
- Control (Human alphaherpesvirus 1 [12]): 22%
- Control (Human alphaherpesvirus 1 [13]): 2.6%
- Control (Human alphaherpesvirus 1 [14]): 14%
- Control (Human alphaherpesvirus 2 [15]): 2.8%
- Control (Human alphaherpesvirus 2 [16]): 9.3%
- Ki (Human alphaherpesvirus 2 [17]): 3980 nM
- Control (Human alphaherpesvirus 1 [18]): 1.6%
- Control (Human alphaherpesvirus 1 [19]): 0.27%
- Ki (Human alphaherpesvirus 1 [20]): 1840 nM
- Control [21]: 0.1%
